Like-named read-outs stand apart in the source and are kept apart here.
Legend:
Type in all cases: in vivo
Kochia (Kochia scoparia) [1] = assay: Test A preemergence; conditions: Bassia scoparia, pre-emergence, 240 h, 0 to 100 scale where 0 is no effect and 100 is complete control, read-out: Kochia plant response rating; for pest or weed control at 31 g/ha: 31 g ai/ha, Preemergence; for pest or weed control at 125 g/ha: 125 g ai/ha, preemergence, approx. 10 d
Procedure, shortened: (§1)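 Greenhouse, ~10 d after spray; visual injury vs untreated controls, 0 = no effect, 100 = complete control. Preemergence: directed soil spray over planted seeds. Postemergence: plants 2–10 cm, 1–2 leaf stage. Loam/sand blend. Compound in non-phytotoxic solvent with surfactant.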

[2] = test system: barnyardgrass (Echinochloa crus-galli); assay: Test A preemergence; conditions: Echinochloa crus-galli, pre-emergence, 240 h, 0 to 100 scale where 0 is no effect and 100 is complete control, read-out: Barnyardgrass plant response rating; for pest or weed control at 31 g/ha: 31 g ai/ha, Preemergence; for pest or weed control at 125 g/ha: 125 g ai/ha, preemergence, approx. 10 d
Procedure, shortened: as §1

[3] = test system: giant foxtail (Setaria faberii); assay: Test A preemergence; conditions: Setaria faberi, pre-emergence, 240 h, 0 to 100 scale where 0 is no effect and 100 is complete control, read-out: Foxtail, Giant plant response rating; for pest or weed control at 31 g/ha: 31 g ai/ha, Preemergence; for pest or weed control at 125 g/ha: 125 g ai/ha, preemergence, approx. 10 d
Procedure, shortened: as §1

[4] = test system: pigweed (Amaranthus retroflexus); assay: Test A preemergence; conditions: Amaranthus retroflexus, pre-emergence, 240 h, 0 to 100 scale where 0 is no effect and 100 is complete control, read-out: Pigweed plant response rating; for pest or weed control at 31 g/ha: 31 g ai/ha, Preemergence; for pest or weed control at 125 g/ha: 125 g ai/ha, preemergence, approx. 10 d
[5] = test system: ragweed (common ragweed, Ambrosia elatior); assay: Test A preemergence; conditions: Ambrosia artemisiifolia, pre-emergence, 240 h, 0 to 100 scale where 0 is no effect and 100 is complete control, read-out: Ragweed plant response rating; for pest or weed control at 31 g/ha: 31 g ai/ha, Preemergence; for pest or weed control at 125 g/ha: 125 g ai/ha, preemergence, approx. 10 d
Procedure, shortened: as §1

[6] = test system: ryegrass, Italian (Italian ryegrass, Lolium multiflorum); assay: Test A preemergence; conditions: Lolium multiflorum, pre-emergence, 240 h, 0 to 100 scale where 0 is no effect and 100 is complete control, read-out: Ryegrass, Italian plant response rating; for pest or weed control at 31 g/ha: 31 g ai/ha, Preemergence; for pest or weed control at 125 g/ha: 125 g ai/ha, preemergence, approx. 10 d
Procedure, shortened: as §1

[7] = test system: Galium (catchweed bedstraw, Galium aparine); assay: Test A postemergence; conditions: Galium, post-emergence, 240 h; for pest or weed control at 125 g/ha: 125 g ai/ha, postemergence, visual injury on 0 to 100 scale (0 no effect, 100 complete control), approx. 10 d, read-out: Galium plant response rating; for pest or weed control at 31 g/ha: Postemergence, 31 g ai/ha, visual injury after approx. 10 d, 0 to 100 scale, 0 no effect, 100 complete control, read-out: Plant response rating, Galium
Procedure, shortened: as §1

Kochia (Kochia scoparia) [8] = assay: Test A postemergence; conditions: Bassia scoparia, post-emergence, 240 h; for pest or weed control at 125 g/ha: 125 g ai/ha, postemergence, visual injury on 0 to 100 scale (0 no effect, 100 complete control), approx. 10 d, read-out: Kochia plant response rating; for pest or weed control at 31 g/ha: Postemergence, 31 g ai/ha, visual injury after approx. 10 d, 0 to 100 scale, 0 no effect, 100 complete control, read-out: Plant response rating, Kochia
Procedure, shortened: as §1

[9] = test system: barnyardgrass (Echinochloa crus-galli); assay: Test A postemergence; conditions: Echinochloa crus-galli, post-emergence, 240 h; for pest or weed control at 125 g/ha: 125 g ai/ha, postemergence, visual injury on 0 to 100 scale (0 no effect, 100 complete control), approx. 10 d, read-out: Barnyardgrass plant response rating; for pest or weed control at 31 g/ha: Postemergence, 31 g ai/ha, visual injury after approx. 10 d, 0 to 100 scale, 0 no effect, 100 complete control, read-out: Plant response rating, Barnyardgrass
Procedure, shortened: as §1

[10] = test system: blackgrass (Alopecurus myosuroides); assay: Test A postemergence; conditions: Alopecurus myosuroides, post-emergence, 240 h; for pest or weed control at 125 g/ha: 125 g ai/ha, postemergence, visual injury on 0 to 100 scale (0 no effect, 100 complete control), approx. 10 d, read-out: Blackgrass plant response rating; for pest or weed control at 31 g/ha: Postemergence, 31 g ai/ha, visual injury after approx. 10 d, 0 to 100 scale, 0 no effect, 100 complete control, read-out: Plant response rating, Blackgrass
Procedure, shortened: as §1

corn (Zea mays) = assay: Test A postemergence; conditions: Zea mays, post-emergence, 240 h; for plant injury at 125 g/ha: 125 g ai/ha, postemergence, visual injury on 0 to 100 scale (0 no effect, 100 complete control), approx. 10 d, read-out: Corn plant response rating; for Corn plant response rating (crop injury, 0 = no effect, 100 = complete kill) at 31 g/ha: Postemergence, 31 g ai/ha, visual injury after approx. 10 d, 0 to 100 scale, 100 complete control
Procedure, shortened: as §1

[11] = test system: giant foxtail (Setaria faberii); assay: Test A postemergence; conditions: Setaria faberi, post-emergence, 240 h; for pest or weed control at 125 g/ha: 125 g ai/ha, postemergence, visual injury on 0 to 100 scale (0 no effect, 100 complete control), approx. 10 d, read-out: Foxtail, Giant plant response rating; for pest or weed control at 31 g/ha: Postemergence, 31 g ai/ha, visual injury after approx. 10 d, 0 to 100 scale, 0 no effect, 100 complete control, read-out: Plant response rating, Foxtail, Giant
Procedure, shortened: as §1

[12] = test system: pigweed (Amaranthus retroflexus); assay: Test A postemergence; conditions: Amaranthus retroflexus, post-emergence, 240 h; for pest or weed control at 125 g/ha: 125 g ai/ha, postemergence; for pest or weed control at 31 g/ha: Postemergence, 31 g ai/ha, visual injury after approx. 10 d, 0 to 100 scale, 0 no effect, 100 complete control, read-out: Plant response rating, Pigweed
Procedure, shortened: as §1

[13] = test system: ragweed (common ragweed, Ambrosia elatior); assay: Test A postemergence; conditions: Ambrosia artemisiifolia, post-emergence, 240 h; for pest or weed control at 125 g/ha: 125 g ai/ha, postemergence; for pest or weed control at 31 g/ha: Postemergence, 31 g ai/ha, visual injury after approx. 10 d, 0 to 100 scale, 0 no effect, 100 complete control, read-out: Plant response rating, Ragweed
Procedure, shortened: as §1

[14] = test system: ryegrass, Italian (Italian ryegrass, Lolium multiflorum); assay: Test A postemergence; conditions: Lolium multiflorum, post-emergence, 240 h; for pest or weed control at 125 g/ha: 125 g ai/ha, postemergence; for pest or weed control at 31 g/ha: Postemergence, 31 g ai/ha, visual injury after approx. 10 d, 0 to 100 scale, 0 no effect, 100 complete control, read-out: Plant response rating, Ryegrass, Italian
Procedure, shortened: as §1

[15] = test system: wheat (Triticum aestivum); assay: Test A postemergence; conditions: Triticum aestivum, post-emergence, 240 h; for plant injury at 125 g/ha: 125 g ai/ha, postemergence; for plant injury at 31 g/ha: Postemergence, 31 g ai/ha, visual injury after approx. 10 d, 0 to 100 scale, 0 no effect, 100 complete control, read-out: Plant response rating, Wheat
Procedure, shortened: as §1

[16] = test system: barnyardgrass (Echinochloa crus-galli); assay: Test B flooded paddy test; conditions: Echinochloa crus-galli, 250 g ai/ha, Flood; 0 to 100 scale where 0 is no effect and 100 is complete control; read-out: Barnyardgrass plant response rating
Procedure, shortened: (§2)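 Plants at 2-leaf stage flooded to 3 cm above soil, with compounds applied directly to paddy water and that depth maintained. Plants kept in greenhouse 13–15 d. Visual rating versus controls on a 0 (no effect) to 100 (complete control) scale.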

[17] = test system: ducksalad (Heteranthera limosa); assay: Test B flooded paddy test; conditions: Heteranthera limosa, 250 g ai/ha, Flood; 0 to 100 scale where 0 is no effect and 100 is complete control; read-out: Ducksalad plant response rating
Procedure, shortened: as §2

rice (Oryra sativa) = assay: Test B flooded paddy test; conditions: Oryza sativa, 250 g ai/ha, Flood; 0 to 100 scale where 0 is no effect and 100 is complete control; read-out: Rice plant response rating
Procedure, shortened: as §2

[18] = test system: sedge, umbrella (small-flower umbrella sedge, Cyperus difformis); assay: Test B flooded paddy test; conditions: Cyperus difformis, 250 g ai/ha, Flood; 0 to 100 scale where 0 is no effect and 100 is complete control; read-out: Sedge, Umbrella plant response rating
Procedure, shortened: as §2

Row | SMILES | pest or weed control at 31 g/ha (Kochia (Kochia scoparia) [1]) [%] | pest or weed control at 125 g/ha (Kochia (Kochia scoparia) [1]) [%] | pest or weed control at 31 g/ha [2] [%] | pest or weed control at 125 g/ha [2] [%] | pest or weed control at 31 g/ha [3] [%] | pest or weed control at 125 g/ha [3] [%] | pest or weed control at 31 g/ha [4] [%] | pest or weed control at 125 g/ha [4] [%] | pest or weed control at 31 g/ha [5] [%] | pest or weed control at 125 g/ha [5] [%] | pest or weed control at 31 g/ha [6] [%] | pest or weed control at 125 g/ha [6] [%] | pest or weed control at 125 g/ha [7] [%] | pest or weed control at 31 g/ha [7] [%] | pest or weed control at 125 g/ha (Kochia (Kochia scoparia) [8]) [%] | pest or weed control at 31 g/ha (Kochia (Kochia scoparia) [8]) [%] | pest or weed control at 125 g/ha [9] [%] | pest or weed control at 31 g/ha [9] [%] | pest or weed control at 125 g/ha [10] [%] | pest or weed control at 31 g/ha [10] [%] | also measured
1 | C=C(C)c1cccc([C@H]2CN(C)C(=O)[C@@H]2C(=O)Nc2ccc(F)c(F)c2F)c1 [Compound 1087] | 0 | 60 | 0 | 90 | 90 | 100 | 0 | 0 | 0 | 0 | 0 | 30 | 70 | 30 | 20 | 0 | 90 | 20 | 30 | 0 | plant injury at 125 g/ha (corn (Zea mays)): 0%; Corn plant response rating (crop injury, 0 = no effect, 100 = complete kill) at 31 g/ha (corn (Zea mays)): 0%; pest or weed control at 125 g/ha [11]: 60%; pest or weed control at 31 g/ha [11]: 30%; pest or weed control at 125 g/ha ([12]; visual injury on 0 to 100 scale (0 no effect, 100 complete control), approx. 10 d, read-out: Pigweed plant response rating): 30%; pest or weed control at 31 g/ha [12]: 0%; pest or weed control at 125 g/ha ([13]; visual injury on 0 to 100 scale (0 no effect, 100 complete control), approx. 10 d, read-out: Ragweed plant response rating): 0%; pest or weed control at 31 g/ha [13]: 0%; pest or weed control at 125 g/ha ([14]; visual injury on 0 to 100 scale (0 no effect, 100 complete control), approx. 10 d, read-out: Ryegrass, Italian plant response rating): 0%; pest or weed control at 31 g/ha [14]: 0%; plant injury at 125 g/ha ([15]; visual injury on 0 to 100 scale (0 no effect, 100 complete control), approx. 10 d, read-out: Wheat plant response rating): 0%; plant injury at 31 g/ha [15]: 0%; pest or weed control at 250 g/ha [16]: 70%; pest or weed control at 250 g/ha [17]: 30%; pest or weed control at 250 g/ha (rice (Oryra sativa)): 25%; pest or weed control at 250 g/ha [18]: 0%
2 | C=C(C)c1ccc([C@H]2CN(C)C(=O)[C@@H]2C(=O)Nc2ccc(F)c(F)c2F)cc1 [Compound 1148] | 0 | 0 | 30 | 90 | 90 | 90 | 0 | 0 | 0 | 0 | 0 | 20 | 40 | 0 | 0 | 0 | 80 | 50 | 20 | 0 | plant injury at 125 g/ha (corn (Zea mays)): 0%; Corn plant response rating (crop injury, 0 = no effect, 100 = complete kill) at 31 g/ha (corn (Zea mays)): 0%; pest or weed control at 125 g/ha [11]: 80%; pest or weed control at 31 g/ha [11]: 50%; pest or weed control at 125 g/ha ([12]; visual injury vs untreated controls after approx. 10 d, 0 = no effect, 100 = complete control, read-out: Pigweed plant response rating (0 to 100 scale)): 20%; pest or weed control at 31 g/ha [12]: 0%; pest or weed control at 125 g/ha ([13]; visual injury vs untreated controls after approx. 10 d, 0 = no effect, 100 = complete control, read-out: Ragweed plant response rating (0 to 100 scale)): 0%; pest or weed control at 31 g/ha [13]: 0%; pest or weed control at 125 g/ha ([14]; visual injury vs untreated controls after approx. 10 d, 0 = no effect, 100 = complete control, read-out: Ryegrass, Italian plant response rating (0 to 100 scale)): 0%; pest or weed control at 31 g/ha [14]: 0%; plant injury at 125 g/ha ([15]; visual injury vs untreated controls after approx. 10 d, 0 = no effect, 100 = complete control, read-out: Wheat plant response rating (0 to 100 scale)): 0%; plant injury at 31 g/ha [15]: 0%; pest or weed control at 250 g/ha [16]: 50%; pest or weed control at 250 g/ha [17]: 70%; pest or weed control at 250 g/ha (rice (Oryra sativa)): 60%; pest or weed control at 250 g/ha [18]: 0%

— patent US12077503B2, “Substituted cyclic amides and their use as herbicides” (FMC CORPORATION, priority 2015, dated 2024)
